Positions of bridges follow the written chain, without caps; N, C: chain ends. No end group written: not given here.
Columns and labels:
[1] = Burn treatment test: body weight and abnormal syndrome; format: in vivo, SD (Sprague-Dawley) rats; details: for BODY WEIGHTS: skin
Method: (§1) The experiment was carried out with 55 male SD (Sprague-Dawley) rats that were divided into […] groups: 5 rats for normal group (1 group, G1), 9-10 rats for negative control (1 group, G2), 30 rats for experimental group (3 groups, 10 rats in each group, G3, G4, G5), and 9-10 rats for positive control (1 group, G6). In the remaining groups except normal group, burned male SD rats was used for experiment. After SD rats were anesthesized, 2-degree burns, 2 cm in diameter, were induced on the SD rats using an aluminum electric soldering iron.
(§2) Test substance HU022 (SEQ ID NO:1) (G3, G4, G5), normal saline solution (G2) and Fiblast (G6) were applied to the skin of the burned male SD rats repeatedly once a day seven times a week for 7 days. Fiblast was applied to control group (G6) in 10 μg/dose/head, and the experimental group was divided into 3 groups and test substance was applied to each group in 3.3 μg/dose/head (G3), 10 μg/dose/head (G4), and 30 μg/dose/head (G5).
(§3) With the measurement results, parametric comparison determined significance via Student's t-test and One-Way ANOVA, and significance testing relative to negative control was conducted. Furthermore, with the histopathology test results of burns, Kruskal-Wallis' H-test was conducted, and when significance between groups was identified, comparison between groups was performed through Mann-Whitney U-test. The computation program for statistics was SPSS 10.1 K. P<0.05 was determined to be statistically significant.

[2] = tested on: 2-degree burns of male SD rats; test: Burn treatment test: burn wound area; format: in vivo, SD (Sprague-Dawley) rats
Method: as §1, §2
After burn was induced, imaging was performed before test substance was applied, and imaging was performed on 1st, 4th, 8th, 11th, and 15th days, and after imaging, test substance was applied and the applied site was covered with gauze and wrapped with tegaderm. Furthermore, images taken for measuring the burn wound area were analyzed using Image analyzer program.
as §3

[3] = tested on: 2-degree burns of male SD rats; test: Burn treatment test: histopathology (H&E) of burn site; format: in vivo, SD (Sprague-Dawley) rats; details: score 0-4, 14th day after burn
Method: as §1, §2
On the 14th day after burn, the burn site on the back was scraped from the dermis and fixed in 10% neutrally buffered formalin solution, and histopathology test was conducted through H&E staining.
as §3

[4] = Hair growth test: body weight; format: in vivo; details: skin
Method: This test was conducted to assess the influence on hair growth of C57BL/6 mouse when 4 types of test substances, HU024 (SEQ ID NO:2), HU025 (SEQ ID NO:3), HU026 (SEQ ID NO:4), and HU027 (SEQ ID NO:5), were applied to the skin for 14 days.
The group design was set to negative control (sterile water for injection G1), test substance HU024 (SEQ ID NO:2) 20 ug/head/day (G2), test substance HU024 (SEQ ID NO:2) 60 ug/head/day (G3), test substance HU025 (SEQ ID NO:3) 20 ug/head/day (G4), test substance HU025 (SEQ ID NO:3) 60 ug/head/day (G5), test substance HU026 (SEQ ID NO:4) 20 ug/head/day (G6), test substance HU026 (SEQ ID NO:4) 60 ug/head/day (G7), test substance HU027 (SEQ ID NO:5) 20 ug/head/day (G8), test substance HU027 (SEQ ID NO:5) 60 ug/head/day (G9) and positive control minoxyl 3% (G10) administered groups. Each group had 10 animals.
After the animal was put under anesthesia using zoletil (1 mL/kg, i.p), the back of the animal was primarily shaved using a depilator, and Veet depilatory was evenly applied on the back. After about 5 minutes, the applied site was cleaned up using gauze moistened with sterile water for injection. Only animal whose shaved back was scarlet in color was used for group separation. The test substance was applied to the same site daily once per day, 7 times per week for 14 days, and the test substance was evenly applied to the shaved site (on the back) by rubbing with a glass rod about 10 times.
The test item was measurements of dead animal, general syndrome, weight change, hair growing area and hair weight, and comparison with negative control was conducted.
The measurement results were analyzed using SPSS (ver. 10.1K), Duncan t-test for weight changes was conducted through one-way analysis of variance, hair weight was compared between groups using Student's t-test, and hair growing area was compared between groups through nonparametric multiple comparison procedures Whitney-Mann methods. P<0.05 was determined to be statistically significant.

## HU022: polypeptide consisting of 452nd-509th amino acids of ADAM 15 (GenBank AAH14566.1), 58 amino acids; commercial product (EYEGENE Inc.)
[1]; 3.3 μg/head/day, Day 1
  BODY WEIGHTS: 261.24 ± 10.05 g
[1]; 3.3 μg/head/day, Day 8
  BODY WEIGHTS: 269.41 ± 17.57 g
[1]; 3.3 μg/head/day, Day 15
  BODY WEIGHTS: 300.31 ± 20.36 g
[1]; 10 μg/head/day, Day 1
  BODY WEIGHTS: 260.59 ± 9.27 g
[1]; 10 μg/head/day, Day 8
  BODY WEIGHTS: 267.86 ± 5.20 g
[1]; 10 μg/head/day, Day 15
  BODY WEIGHTS: 296.55 ± 8.86 g
[1]; 30 μg/head/day, Day 1
  BODY WEIGHTS: 257.94 ± 9.23 g
[1]; 30 μg/head/day, Day 8
  BODY WEIGHTS: 259.49 ± 15.34 g
[1]; 30 μg/head/day, Day 15
  BODY WEIGHTS: 284.87 ± 17.06 g
[1]; burned male SD rats, skin application
  abnormal syndrome after application: any abnormal syndrome was not observed
[2]; 3.3 μg/head/day, Day 1
  BURN WOUNDED AREA: 4.8 ± 0.8 cm^2
  BURN WOUNDED AREA (%): 100.0 ± 16.3%
[2]; 3.3 μg/head/day, Day 4
  BURN WOUNDED AREA: 3.8 ± 0.6 cm^2
  BURN WOUNDED AREA (%): 79.2 ± 13.571%
[2]; 3.3 μg/head/day, Day 8
  BURN WOUNDED AREA: 2.9 ± 0.6 cm^2
  BURN WOUNDED AREA (%): 60.8 ± 11.9%
[2]; 3.3 μg/head/day, Day 11
  BURN WOUNDED AREA: 2.5 ± 0.7 cm^2
  BURN WOUNDED AREA (%): 51.6 ± 15.7%
[2]; 3.3 μg/head/day, Day 15
  BURN WOUNDED AREA: 1.9 ± 0.6 cm^2
  BURN WOUNDED AREA (%): 40.1 ± 12.8%
[2]; 10 μg/head/day, Day 1
  BURN WOUNDED AREA: 4.3 ± 0.9 cm^2
  BURN WOUNDED AREA (%): 100.0 ± 23.0%
[2]; 10 μg/head/day, Day 4
  BURN WOUNDED AREA: 3.6 ± 0.8 cm^2
  BURN WOUNDED AREA (%): 82.7 ± 18.0%
[2]; 10 μg/head/day, Day 8
  BURN WOUNDED AREA: 2.9 ± 0.5 cm^2
  BURN WOUNDED AREA (%): 68.2 ± 12.3%
[2]; 10 μg/head/day, Day 11
  BURN WOUNDED AREA: 2.4 ± 0.3 cm^2
  BURN WOUNDED AREA (%): 56.8 ± 7.7%
[2]; 10 μg/head/day, Day 15
  BURN WOUNDED AREA: 2.2 ± 0.4 cm^2
  BURN WOUNDED AREA (%): 51.9 ± 8.9%
[2]; 30 μg/head/day, Day 1
  BURN WOUNDED AREA: 5.2 ± 0.4 cm^2
  BURN WOUNDED AREA (%): 100.0 ± 7.0%
[2]; 30 μg/head/day, Day 4
  BURN WOUNDED AREA: 3.5 ± 0.5 cm^2
  BURN WOUNDED AREA (%): 67.6 ± 9.3 %
[2]; 30 μg/head/day, Day 8
  BURN WOUNDED AREA: 2.9 ± 0.3 cm^2
  BURN WOUNDED AREA (%): 55.9 ± 5.1%
[2]; 30 μg/head/day, Day 11
  BURN WOUNDED AREA: 2.3 ± 0.1 cm^2
  BURN WOUNDED AREA (%): 43.9 ± 2.6%
[2]; 30 μg/head/day, Day 15
  BURN WOUNDED AREA: 1.8 ± 0.4 cm^2
  BURN WOUNDED AREA (%): 35.6 ± 8.4%
[3]; 3.3 μg/head/day
  Epidermal regeneration: 0.1 ± 0.0 points
  Eschar: 4.0 ± 0.0 points
  Fibroplasia (connective tissue growth): 3.1 ± 0.3 points
  Infiltration of Inflammatory cells: 3.0 ± 0.0 points
  Pilosebaceous (skin appendage regeneration): 0.1 ± 0.3 points
[3]; 10 μg/head/day
  Epidermal regeneration: 0.6 ± 0.5 points
  Eschar: 3.2 ± 0.6 points
  Fibroplasia (connective tissue growth): 3.0 ± 0.5 points
  Infiltration of Inflammatory cells: 3.0 ± 0.0 points
  Pilosebaceous (skin appendage regeneration): 0.9 ± 1.1 points
[3]; 30 μg/head/day
  Epidermal regeneration: 0.6 ± 0.7 points
  Eschar: 2.7 ± 0.7 points
  Fibroplasia (connective tissue growth): 3.3 ± 0.5 points
  Infiltration of Inflammatory cells: 3.0 ± 0.0 points
  Pilosebaceous (skin appendage regeneration): 1.1 ± 1.0 points

## HU024 (RPTRGDCDLPEFCPG; disulfide 7-13; listed as Homo sapiens)
[4]; 20 ug/head/day, Day 1
  BODY WEIGHTS: 21.34 ± 0.60 g
[4]; 20 ug/head/day, Day 7
  BODY WEIGHTS: 22.64 ± 0.76 g
[4]; 20 ug/head/day, Day 11
  BODY WEIGHTS: 24.15 ± 0.86 g
[4]; 60 ug/head/day, Day 1
  BODY WEIGHTS: 21.54 ± 0.53 g
[4]; 60 ug/head/day, Day 7
  BODY WEIGHTS: 23.02 ± 0.74 g
[4]; 60 ug/head/day, Day 11
  BODY WEIGHTS: 24.30 ± 1.08 g
